Assay results reported in PMC8129133, “Polymer-free corticosteroid dimer implants for controlled and sustained drug delivery” (Nature Communications, 2021).
“And” between values parts separate entries of the source, which are not always exact repeats. Equal values may be shown once.

Assays:
[1] = test system: lipopolysaccharide (LPS)-induced model of uveitis in a rat eye; test: Rat uveitis model; type: in vivo, Brown Norway rats; conditions: for Retinal Thickness (µm): single eyes, Fig 7e
Procedure: Sample preparation. Dex-TEG-Dex was weighed on a stainless steel coupon and transferred to a heat press (Carver Laboratory Press). Once melted, a polytetrafluoroethylene (PTFE) template was placed on the melt and pressure was applied for 2 min. Samples were cooled to room temperature prior to removal from the PTFE mold, yielding implants with 23 G diameter × 1 mm length. Samples were loaded into appropriate-sized needles (23 G), packaged, and sterilized by ethylene oxide gas.
LPS stimulation and implantation. […] Animals were first sedated in an isoflurane gas chamber before being anaesthetized through an intraperitoneal injection of ketamine (100 mg/kg) and xylazine (10 mg/kg) solution. One day prior to LPS stimulation, eyes were prepared with topical anesthetic eye drops (Alcaine, 0.5%, Alcon) and pupils were dilated with application of one drop of 1% tropicamide (Alcon) on each cornea prior to anesthesia. Implants were then injected with a 23 G needle into the vitreous humor of rat eyes. Negative control animals received a sham injection, while the positive control group received a sham injection as well as Dex eye drops 4× daily (Maxidex 0.1%, Alcon). One day after test article administration, each rat received an intravitreal injection of 100 ng of LPS (LPS Escherichia coli 0111:B4, Sigma Aldrich) to induce inflammation. The inflammatory state of the eyes was monitored by slit-lamp microscopy (Phoenix Anterior Segment Slit Lamp), fundus microscopy (Phoenix Micron IV), and optical coherence tomography (Phoenix image-guided OCT) for 72 h post-LPS injection. Slit-lamp was used to image the anterior structures of the rat eye and to assess changes in vasculature, aqueous humor haze, pupil responsiveness, and presence of cellular infiltrates. Anterior segment OCT (ASOCT) was used to assess signs of inflammation in the anterior chamber through anterior chamber flare, pupillary fibrin occlusions, and presence of inflammatory cells. The ASOCT was used only for qualitative evaluation of the inflammatory state. Posterior segment OCT (PSOCT) was used to capture six (6) images around the optic disc (OD) of each eye and the images were used for retinal thickness, inflammatory cell count, and vitreal haze evaluation. Retinal thickness was measured using ImageJ (v.1.8.0) from four (4) OCT images close to the optic disk. Inflammatory cells were manually quantified from the same OCT images used for retinal thickness measurements.

[2] = Dissolution of intravitreal implants in the rabbit eye (IR imaging of implant diameter, model fit); type: in vivo; conditions: for local surface dissolution rate constant / Implant Diameter (%): intravitreal; for local surface dissolution rate constant / Diameter of the drug delivery device / Diameter of drug delivery device: rabbit eye; for Implant Diameter (%): Fig 8b, 30 G × 6 mm implant, rabbit; for Diameter of the drug delivery device: script for Supp Fig 11a (30 G implant); for Diameter of drug delivery device: script for Supp Fig 11b, 32G × 6mm
Procedure: Sample preparation. All implants were formed by melt extrusion of Dex-TEG-Dex, followed by cutting of implants to desired length. Samples were loaded into appropriate sized needles (27 G for 27 G implant, 30 G for 30 G, and 32 G implants), packaged, and sterilized by ethylene oxide gas.
IR imaging. Wide-angle infrared (IR) imaging was performed at baseline, and monthly thereafter for implant imaging and eye health assessment. The imaging was performed using a Heidelberg Spectralis® imaging platform and IR images were analyzed using image analysis software (Image J v.1.8.0) to measure the diameter change of the implants. Three diameter measurements per image and a minimum of two images per implant were used to determine the diameter of the implant at each time point.
Mathematical modeling of drug release. Modeling of the Dex-TEG-Dex implants in the rabbit eye was performed using a compartmental model of drug release using MathWorks MATLAB R2020b. In this model, the drug delivery device is formed of solid drug dimer which undergoes surface erosion to release dimer into an intermediate domain. In the intermediate domain, dimer undergoes degradation to free drug and mono (linker-drug), which subsequently degrades to free linker and free drug. These components undergo transport to the target domain and are then cleared.
This model employs several simplifying assumptions. (1) The mechanism of surface dissolution is local (the same for each part of the surface independent of its location on the surface of the implant), in a manner dependent on the properties of the implant’s physiological location (e.g., dimer saturation). (2) Rate constants of processes are time independent, and the dissolution rates only depend on the corresponding changes in the shape of the delivery devices and properties of their environment. (3) Dimer degradation in the domain of interest occurs on a comparatively fast time scale such that the saturation concentration of dimer is not reached.
A differential equation for the radius, R(t), of a cylindrical drug delivery device described by the compartmental model and derived using Noyes–Whitney equation[74],[75] can be written as (1):1 dR/dt=−DμY/ρh⋅y^*=−b, where D is a diffusion coefficient, µY is the molecular mass of the dimer, ρ is the density of the drug delivery device material, h is the thickness of the concentration gradient layer near the surface, y* is the saturation concentration of the dimer and b is the local surface dissolution rate.
The initial radius, R, of the cylindrical device is known: R0=R0 . Integrating Eq. (1) with this initial condition, gives Eq. (2):2 Rt=R0−b⋅t
Equation (2) was fit to available data (time-dependent measurements of implant diameter) to estimate the local surface dissolution rate constant b for the 30 G × 6 mm and 32 G × 6 mm Dex-TEG-Dex intravitreal implants.

Compound: C[C@@H]1C[C@H]2[C@@H]3CCC4=CC(=O)C=C[C@]4(C)[C@@]3(F)[C@@H](O)C[C@]2(C)[C@@]1(O)C(=O)COC(=O)OCCOCCOCCOC(=O)OCC(=O)[C@@]1(O)[C@H](C)C[C@H]2[C@@H]3CCC4=CC(=O)C=C[C@]4(C)[C@@]3(F)[C@@H](O)C[C@@]21C [Dex-TEG-Dex]
- Retinal Thickness (µm) ([1]; 0h): 298 µm and 279 µm and 272 µm and 275 µm and 314 µm and 300 µm and 293 µm and 294 µm
- Retinal Thickness (µm) ([1]; 24h): 300 µm and 269 µm and 279 µm and 286 µm and 296 µm and 289 µm and 292 µm
- Retinal Thickness (µm) ([1]; 48h): 279 µm and 296 µm and 265 µm and 264 µm and 275 µm and 261 µm and 294 µm and 266 µm
- Retinal Thickness (µm) ([1]; 72h): 245 µm and 261 µm and 250 µm and 249 µm and 236 µm and 241 µm and 247 µm and 259 µm
- Retinal Thickness (µm) ([1]; -24h): 244 µm and 248 µm and 257 µm and 251 µm and 238 µm and 240 µm
- effect on LPS-induced inflammatory response ([1]; intravitreal 23 G implant, 24 h before LPS, cellular infiltrate and retinal thickness by OCT, 72 h): acutely suppress the LPS-induced inflammatory response
- local surface dissolution rate constant ([2]; 30 G implant): 0.1510 ± 0.0084 µm/day
- local surface dissolution rate constant ([2]; 32 G implant): 0.1522 ± 0.0140 µm/day
- Implant Diameter (%) ([2]; 0 days): 107.57% and 103.15% and 92.13% and 99.18% and 92.81% and 97.05% and 100.23% and 107.88%
- Implant Diameter (%) ([2]; 35 days): 87.55% and 86.70% and 88.00% and 92.68% and 90.49% and 81.42% and 103.34% and 91.71%
- Implant Diameter (%) ([2]; 76 days): 82.56% and 74.07% and 79.78% and 98.06% and 80.37% and 72.75% and 93.94%
- Implant Diameter (%) ([2]; 128 days): 76.90% and 66.50% and 66.32% and 64.24% and 79.47% and 77.51% and 67.41% and 82.08%
- Implant Diameter (%) ([2]; 210 days): 55.93% and 41.19% and 50.86% and 49.89% and 69.49% and 44.35% and 52.23% and 60.96%
- Diameter of the drug delivery device ([2]; day 0): 115.44 µm and 122.56 µm and 115.98 µm and 121.28 µm and 125.25 µm and 134.81 µm and 135.77 µm and 128.91 µm
- Diameter of the drug delivery device ([2]; day 35): 109.97 µm and 115.81 µm and 110.60 µm and 101.74 µm and 129.14 µm and 114.61 µm and 109.41 µm and 108.35 µm
- Diameter of the drug delivery device ([2]; day 76): 92.56 µm and 99.70 µm and 122.54 µm and 101.44 µm and 90.91 µm and 117.39 µm and 94.21 µm and 112.13 µm
- Diameter of the drug delivery device ([2]; day 128): 81.93 µm and 80.28 µm and 99.31 µm and 96.86 µm and 84.21 µm and 102.57 µm and 96.10 µm and 83.10 µm
- Diameter of the drug delivery device ([2]; day 185): 71.40 µm and 91.90 µm and 62.52 µm and 53.64 µm and 76.76 µm and 78.82 µm and 73.54 µm
- Diameter of the drug delivery device ([2]; day 210): 63.55 µm and 62.35 µm and 86.62 µm and 55.42 µm and 65.27 µm and 76.18 µm and 69.90 µm and 51.48 µm
- Diameter of drug delivery device ([2]; day 0): 71.94 µm and 80.30 µm and 83.05 µm and 99.99 µm and 86.79 µm and 101.43 µm and 116.40 µm and 84.89 µm
- Diameter of drug delivery device ([2]; day 35): 90.18 µm and 66.10 µm and 74.39 µm and 80.46 µm and 84.98 µm and 58.84 µm and 82.44 µm and 84.41 µm
- Diameter of drug delivery device ([2]; day 76): 77.98 µm and 58.21 µm and 73.62 µm and 66.12 µm and 67.29 µm and 54.07 µm and 65.40 µm and 64.89 µm
- Diameter of drug delivery device ([2]; day 128): 43.88 µm and 50.55 µm and 44.52 µm and 60.85 µm and 49.60 µm and 50.03 µm and 42.29 µm and 71.40 µm
